In assay [1] the test system is C3H/Hej (H-2Kk) recipient mice. As to the kind of experiment: Chimerism induction: allogeneic T-depleted BM transplant under non myeloablative conditioning and co-stimulatory blockade. The class given is in vivo. On the procedure:
C3H/Hen recipient mice were conditioned with busulfan (2×30 mg/Kg) and T cell debulking with […] anti-CD4 and anti-CD8. Post transplant treatment included […] CTLA4/FC, […] anti-CD48, and 0.1 mg FTY720 administered at the indicated time points.
Non myeloablative conditioning and co-stimulatory blockade Protocol: C3H/Hej (H-2K^k) recipient mice were conditioned with 30 mg/kg IV Busulfex on days −3 and −2 following T cell debulking on day −6 with 300 μg anti-CD4 (Bio Express, clone Gk1.5) and anti-CD8 (Bio Express, cone 53.6.72) antibodies. On day 0, 25×10^6 T-depleted BM cells from Balb/c-Nude (H-2D^d) donors were transplanted and subjected to co-stimulation blockade consisting of 200 μg CTLA4/FC (Chimerigen Laboratories), 250 μg anti-CD48 (Bio Express, clone HM 48) and 0.1 mg FTY720 (Novartis) that was administered as follows: CTLA4/FC and anti-CD48 were injected IP on days 0, 2, 4, 6, 21 and 35 while FTY720 was inoculated per OS for 5 days from day 0 to 5 and from day 6 till day 90 twice a week. Chimerism analysis was monitored every 30 days by FACS analysis. […]
Multilineage Chimerism was performed on donor chimera 70 to 163 days post transplant. […] Fluorescence-activated cell sorting (FACS) analysis was performed using a modified Becton Dickinson FACScan.

Assay [2] relates to C57BL/6 (Ly-5.2) recipient mice. As to the kind of experiment: Determination of the minimal myeloablation with busulphan: donor type chimerism after congenic T cell depleted bone marrow transplant. The class given is in vivo. From the text:
Animals: 6-12 week old female mice were used of the following strains: C57BL/6 (B6, recipient, H-2b, Ly-5.2), B6.SJL-Ptprca Pep3b/BoyJ (congenic strain, donor, H-2b, Ly-5.1) Balb/c (donor, H-2d) and C3H/Hen (recipient, H-2k) mice (all purchased from Harlan Laboratories Ltd, Ein Kerem Breeding farm Jerusalem). All mice were housed under specific pathogen free conditions and maintained under conditions approved by the Institutional Animal Care and Use Committee at the Weizmann Institute of Science.
Determination of the minimal myeloablation with Busulphan: Different groups of C57BL/6 (Ly-5.2) recipient mice were conditioned with the following final doses of IV Busulfex (Otsuka America Pharmaceutical, Inc.): 10, 20, 40, 50, 60, 80, and 100 mg/Kg/mouse. The final doses of IV Busulfex were divided in two and administered (IP) on day −2 and −1. On day 0, 25×10^6 T-depleted bone marrow cells isolated from B6.SJL-Ptprca Pep3b/BoyJ (Ly-5.1) donors were transplanted (IV) and the establishment of donor type chimerism was defined 1 and 12 month post transplant in the blood, spleen, and BM by FACS analysis of the congenic donor marker (Ly-5.1). Phenotypic expression analysis of CD8, CD4, CD45/B220 and CD11b markers on the LY-5.1^+ (donor) cells in the spleen and the BM of the donor chimera, was performed 12 month post transplant.
Flow cytometry for chimerism and multilineage analysis: For chimerism analysis, blood mononuclear cells were stained with labeled antibodies specific for Host (H-2K^k-phycoerythrin (PE)) and donor (H-2D^d-fluorescein isothiocyanate (FITC)) MHC class-I antigens. In the congenic model, anti-CD45.2-PE and anti-CD45.1-FITC antibodies were used to distinguish between the host and the donor.
Considering the importance of providing empty niches for successful BM engraftment, the present inventors initially determined the minimal myeloablation with busulphan which induced durable chimerism following infusion of congenic B6-SJL (Ly-5.1) T cell depleted bone marrow (TDBM, 25×10^6) into B6 (Ly-5.2) mice. […] Consequently, the sublethal dose of 60 mg/Kg was selected for further use in all attempts to induce allogeneic chimerism, in conjunction with transient debulking of host lymphocytes by a single infusion of anti-CD4 and anti-CD8 depleting antibodies.

The source of these data is patent US20130183322A1, “IMMUNOSUPPRESSIVE DRUG COMBINATION FOR A STABLE AND LONG TERM ENGRAFTMENT” (YEDA RESEARCH AND DEVELOPMENT CO., LTD., priority 2011, published 2013).

For the molecule `CCCCCCCCc1ccc(CCC(N)(CO)CO)cc1.Cl` [FTY720, 2-amino-2-[2-(4-octylphenyl)ethyl]propane-1,3-diol hydrochloride], the “chimerism achieved (in words)” value in assay [1] (allogeneic megadose TDBM after busulfan 60 mg/Kg plus anti-CD4/anti-CD8 debulking, post transplant treatment) was “no chimerism”. Further, in assay [1] (two independent experiments, median follow-up 116 days (range 70 to 163) beyond cessation of immune suppression, for the combination, mice with more than 80% chimerism), the “mice with donor type chimerism (number of mice)” value is recorded as 0 out of 7.

For `CS(=O)(=O)OCCCCOS(C)(=O)=O` [busulphan], the donor type chimerism entry in assay [2] (at doses higher than 50 mg/Kg (tested 10 to 100 mg/Kg)) is recorded as “above 50%”; in assay [2] (busulphan 50 mg/Kg, congenic B6-SJL (Ly-5.1) TDBM 25x10^6 into B6 (Ly-5.2) mice), 40±26%; in assay [2] (busulphan 60 mg/Kg, congenic B6-SJL (Ly-5.1) TDBM 25x10^6 into B6 (Ly-5.2) mice), 66±7%; in assay [2] (busulphan 100 mg/Kg, congenic B6-SJL (Ly-5.1) TDBM 25x10^6 into B6 (Ly-5.2) mice) it was 75±2%.
